Assay results from patent US8993586B2, “N1/N2-lactam acetyl-CoA carboxylase inhibitors” (Pfizer Inc., priority 2010, dated 2015).
pIC50: −log10 of the molar value.

What was measured:
[1] = molecular target: recombinant human ACC1 (rhACC1) (Homo sapiens (Human), UniProt Q13085); assay: recombinant hACC1 Transcreener ADP detection FP assay; assay type: biochemical; conditions: 50 μM ATP, 120 min at 25° C.
Experimental: (§1) For example direct inhibition of ACC activity, for the compound of Formula (I) was determined using preparations of recombinant human ACC1 (rhACC1) and recombinant human ACC2 (rhACC2).
[1] Preparation of rhACC1. Two liters of SF9 cells, infected with recombinant baculovirus containing full length human ACC1 cDNA, were suspended in ice-cold lysis buffer (25 mM Tris, pH 7.5; 150 mM NaCl; 10% glycerol; 5 mM imidazole (EMD Bioscience; Gibbstown, N.J.); 2 mM TCEP (BioVectra; Charlottetown, Canada); Benzonase nuclease (10000 U/100 g cell paste; Novagen; Madison, Wis.); EDTA-free protease inhibitor cocktail (1 tab/50 mL; Roche Diagnostics; Mannheim, Germany). Cells were lysed by 3 cycles of freeze-thaw and centrifuged at 40,000×g for 40 minutes (4° C.). Supernatant was directly loaded onto a HisTrap FF crude column (GE Healthcare; Piscataway, N.J.) and eluted with an imidazole gradient up to 0.5 M over 20 column volumes (CV). ACC1-containing fractions were pooled and diluted 1:5 with 25 mM Tris, pH 7.5, 2 mM TCEP, 10% glycerol and direct loaded onto a CaptoQ (GE Healthcare) column and eluted with an NaCl gradient up to 1 M over 20 CV's. Phosphate groups were removed from purified ACC1 by incubation with lambda phosphatase (100 U/10 μM target protein; New England Biolabs; Beverly, Mass.) for 14 hours at 4° C.; okadaic acid was added (1 μM final concentration; Roche Diagnostics) to inhibit the phosphatase. Purified ACC1 was exchanged into 25 mM Tris, pH 7.5, 2 mM TCEP, 10% glycerol, 0.5 M NaCl by 6 hour dialysis at 4° C. Aliquots were prepared and frozen at −80° C.
[2] Measurement of rhACC1 inhibition. hACC1 was assayed in a Costar #3676 (Costar, Cambridge, Mass.) 384-well plate using the Transcreener ADP detection FP assay kit (Bellbrook Labs, Madison, Wis.) using the manufacturer's recommended conditions for a 50 μM ATP reaction. The final conditions for the assay were 50 mM HEPES, pH 7.2, 10 mM MgCl2, 7.5 mM tripotassium citrate, 2 mM DTT, 0.1 mg/mL BSA, 30 μM acetyl-CoA, 50 μM ATP, and 10 mM KHCO3 Typically, a 10 μl reaction was run for 120 min at 25° C., and 10 μl of Transcreener stop and detect buffer was added and the combination incubated at room temp for an additional 1 hour. The data was acquired on a Envision Fluorescence reader (PerkinElmer) using a 620 excitation Cy5 FP general dual mirror, 620 excitation Cy5 FP filter, 688 emission (S) and a 688 (P) emission filter.

[2] = molecular target: recombinant human ACC2 (rhACC2) (Homo sapiens (Human), UniProt O00763); assay: recombinant hACC2 Transcreener ADP detection FP assay; assay type: biochemical; conditions: 50 uM ATP, 50 min at 25° C.
recombinant human ACC2 (rhACC2), sequence (O00763 whole entry V2141I): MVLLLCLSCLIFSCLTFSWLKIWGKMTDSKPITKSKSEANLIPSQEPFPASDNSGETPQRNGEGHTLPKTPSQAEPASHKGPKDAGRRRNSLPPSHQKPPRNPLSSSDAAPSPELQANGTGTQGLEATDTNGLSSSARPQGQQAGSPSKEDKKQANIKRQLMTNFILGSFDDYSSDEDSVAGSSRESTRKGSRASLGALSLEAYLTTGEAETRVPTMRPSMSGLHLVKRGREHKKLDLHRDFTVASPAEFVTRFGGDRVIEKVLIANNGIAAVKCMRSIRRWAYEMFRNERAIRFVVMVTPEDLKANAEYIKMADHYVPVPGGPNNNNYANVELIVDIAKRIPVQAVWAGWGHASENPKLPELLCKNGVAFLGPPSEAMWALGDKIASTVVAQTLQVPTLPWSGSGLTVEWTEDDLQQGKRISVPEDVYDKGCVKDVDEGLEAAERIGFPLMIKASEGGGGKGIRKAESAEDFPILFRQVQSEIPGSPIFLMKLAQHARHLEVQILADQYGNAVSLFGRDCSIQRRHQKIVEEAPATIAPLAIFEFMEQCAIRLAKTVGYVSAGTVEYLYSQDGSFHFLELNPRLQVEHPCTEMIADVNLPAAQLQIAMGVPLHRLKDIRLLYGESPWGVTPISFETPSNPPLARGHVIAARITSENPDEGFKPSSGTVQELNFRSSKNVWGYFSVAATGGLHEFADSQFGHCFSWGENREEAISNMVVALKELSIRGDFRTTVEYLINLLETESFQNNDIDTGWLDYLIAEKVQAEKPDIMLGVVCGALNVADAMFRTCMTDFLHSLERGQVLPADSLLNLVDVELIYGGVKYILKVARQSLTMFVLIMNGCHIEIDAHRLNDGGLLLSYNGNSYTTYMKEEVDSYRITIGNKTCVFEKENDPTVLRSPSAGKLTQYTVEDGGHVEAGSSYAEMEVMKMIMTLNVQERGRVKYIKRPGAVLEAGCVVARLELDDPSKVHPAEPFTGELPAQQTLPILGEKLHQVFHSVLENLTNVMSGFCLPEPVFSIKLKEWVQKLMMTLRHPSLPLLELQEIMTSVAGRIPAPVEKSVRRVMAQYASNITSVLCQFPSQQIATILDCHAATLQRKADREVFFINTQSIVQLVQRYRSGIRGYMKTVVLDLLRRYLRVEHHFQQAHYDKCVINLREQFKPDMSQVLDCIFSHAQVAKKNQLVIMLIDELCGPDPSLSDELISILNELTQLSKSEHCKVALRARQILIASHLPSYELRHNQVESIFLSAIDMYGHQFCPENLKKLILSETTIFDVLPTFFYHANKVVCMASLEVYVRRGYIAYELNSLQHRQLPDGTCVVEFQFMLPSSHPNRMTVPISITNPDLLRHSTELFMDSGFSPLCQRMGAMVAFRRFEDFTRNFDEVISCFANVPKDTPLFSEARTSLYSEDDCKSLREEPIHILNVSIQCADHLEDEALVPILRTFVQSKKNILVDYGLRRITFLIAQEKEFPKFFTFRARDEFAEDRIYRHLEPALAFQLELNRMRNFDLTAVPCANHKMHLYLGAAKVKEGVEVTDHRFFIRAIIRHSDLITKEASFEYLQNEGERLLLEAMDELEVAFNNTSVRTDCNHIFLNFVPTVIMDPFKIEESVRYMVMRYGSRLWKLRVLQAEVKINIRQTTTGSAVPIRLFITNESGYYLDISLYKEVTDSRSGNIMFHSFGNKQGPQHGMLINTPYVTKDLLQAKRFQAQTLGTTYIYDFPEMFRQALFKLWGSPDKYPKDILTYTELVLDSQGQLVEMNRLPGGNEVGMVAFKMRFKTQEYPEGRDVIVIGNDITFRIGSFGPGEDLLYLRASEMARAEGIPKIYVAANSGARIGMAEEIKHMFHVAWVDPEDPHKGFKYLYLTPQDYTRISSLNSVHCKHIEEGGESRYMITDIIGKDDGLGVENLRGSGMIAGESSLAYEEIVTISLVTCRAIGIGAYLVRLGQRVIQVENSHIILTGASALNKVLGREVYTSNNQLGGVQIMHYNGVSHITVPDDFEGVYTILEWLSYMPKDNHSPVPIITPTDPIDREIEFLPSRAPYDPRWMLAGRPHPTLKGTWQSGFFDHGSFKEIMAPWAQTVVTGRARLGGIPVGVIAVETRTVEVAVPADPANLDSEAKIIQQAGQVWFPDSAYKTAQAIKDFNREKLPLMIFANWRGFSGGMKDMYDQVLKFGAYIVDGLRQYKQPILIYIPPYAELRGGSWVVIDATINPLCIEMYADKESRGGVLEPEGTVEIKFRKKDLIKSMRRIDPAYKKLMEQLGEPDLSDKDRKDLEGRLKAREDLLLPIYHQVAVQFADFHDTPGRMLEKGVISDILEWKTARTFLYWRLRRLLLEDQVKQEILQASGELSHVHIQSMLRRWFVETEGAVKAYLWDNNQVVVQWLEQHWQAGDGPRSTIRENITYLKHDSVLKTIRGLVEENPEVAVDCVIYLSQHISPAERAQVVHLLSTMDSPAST
Experimental: as §1
[3] Preparation of rhACC2. Human ACC2 inhibition was measured using purified recombinant human ACC2 (hrACC2). Briefly, a full length Cytomax clone of ACC2 was purchased from Cambridge Bioscience Limited and was sequenced and subcloned into PCDNA5 FRT TO-TOPO (Invitrogen, Carlsbad, Calif.). The ACC2 was expressed in CHO cells by tetracycline induction and harvested in 5 liters of DMEM/F12 with glutamine, biotin, hygromycin and blasticidin with 1 μg/mL tetracycline (Invitrogen, Carlsbad, Calif.). The conditioned medium containing ACC2 was then applied to a Softlink Soft Release Avidin column (Promega, Madison, Wis.) and eluted with 5 mM biotin. […] The purified ACC2 was dialyzed in 50 mM Tris, 200 mM NaCl, 4 mM DTT, 2 mM EDTA, and 5% glycerol. […] For measurement of ACC2 activity and assessment of ACC2 inhibition, test compounds were dissolved in DMSO and added to the rhACC2 enzyme as a 5× stock with a final DMSO concentration of 1%.
[4] Measurement of human ACC2 inhibition. hACC2 was assayed in a Costar #3676 (Costar, Cambridge, Mass.) 384-well plate using the Transcreener ADP detection FP assay kit (Bellbrook Labs, Madison, Wis.) using the manufacturer's recommended conditions for a 50 uM ATP reaction. The final conditions for the assay were 50 mM HEPES, pH 7.2, 5 mM MgCl2, 5 mM tripotassium citrate, 2 mM DTT, 0.1 mg/mL BSA, 30 μM acetyl-CoA, 50 μM ATP, and 8 mM KHCO3 Typically, a 10 μl reaction was run for 50 min at 25° C., and 10 μl of Transcreener stop and detect buffer was added and the combination incubated at room temp for an additional 1 hour. The data was acquired on an Envision Fluorescence reader (PerkinElmer) using a 620 excitation Cy5 FP general dual mirror, 620 excitation Cy5 FP filter, 688 emission (S) and a 688 (P) emission filter.

| Compound | pIC50 [1] | pIC50 [2] |
| --- | --- | --- |
| COc1cccc2cc(C(=O)N3CCC4(CC3)Cc3cn(C(C)(C)C)nc3C(=O)N4)ccc12 [Example 50] | 7.52 | 8.12 |
| COc1cc(C(=O)N2CCC3(CC2)Cc2cn(C(C)(C)C)nc2C(=O)N3)nc2c(OC)cccc12 [Example 51] | 7.82 | 8.36 |
| CC(C)(C)n1cc2c(n1)C(=O)NC1(CCN(C(=O)c3ccc4cn[nH]c4c3)CC1)C2 [Example 52] | 7.06 | 7.77 |
| CC(C)(C)n1cc2c(n1)C(=O)NC1(CCN(C(=O)c3ccc4c(C#N)n[nH]c4c3)CC1)C2 [Example 53] | 7.33 | 7.89 |
| CC(C)(C)n1cc2c(n1)C(=O)NC1(CCN(C(=O)c3ccc4[nH]nc(C(N)=O)c4c3)CC1)C2 [Example 54] | 7.68 | 8.29 |
| COc1ccc(C)c2[nH]c(C(=O)N3CCC4(CC3)Cc3cn(C(C)(C)C)nc3C(=O)N4)cc12 [Example 56] | 8.13 | 8.72 |
| CC(C)(C)n1cc2c(n1)C(=O)NC1(CCN(C(=O)c3ccc4nc(N)ccc4c3)CC1)C2 [Example 58] | 6.83 | 7.92 |
| CC(C)(C)n1cc2c(n1)C(=O)NC1(CCN(C(=O)c3ccc4cnc(N)cc4c3)CC1)C2 [Example 59] | 6.91 | 7.85 |
| CC(C)(C)n1cc2c(n1)C(=O)NC1(CCN(C(=O)c3ccc4[nH]nc(C#N)c4c3)CC1)C2 [Example 60] | 7.37 | 7.85 |
| CC(C)(C)n1cc2c(n1)C(=O)NC1(CCN(C(=O)c3ccc4[nH]nc(N)c4c3)CC1)C2 [Example 61] | 7.03 | 7.89 |
| Cc1cc(C(=O)N2CCC3(CC2)Cc2cn(C(C)(C)C)nc2C(=O)N3)cc2c(Cl)n[nH]c12 [Example 62] | 8.08 | 8.68 |
| CC(C)(C)n1cc2c(n1)C(=O)NC1(CCN(C(=O)c3ccc4ncccc4c3)CC1)C2 [Example 63] | 6.80 | 7.55 |
| CC(C)(C)n1cc2c(n1)C(=O)NC1(CCN(C(=O)c3ccc4c(N)n[nH]c4c3)CC1)C2 [Example 65] | 6.59 | 7.25 |
| COc1cc(C(=O)N2CCC3(CC2)Cc2cn(C(C)(C)C)nc2C(=O)N3)cc2[nH]ncc12 [Example 66] | 7.77 | 8.62 |
| Cn1[nH]c2ccc(C(=O)N3CCC4(CC3)Cc3cn(C(C)(C)C)nc3C(=O)N4)cc2c1=O [Example 67] | 5.87 | 6.51 |
| COc1cccc2cc(C(=O)N3CCC4(CC3)Cc3cn(C(C)(C)C)nc3C(=O)N4)cnc12 [Example 68] | 6.66 | 7.17 |
| CNc1ccc2cc(C(=O)N3CCC4(CC3)Cc3cn(C(C)(C)C)nc3C(=O)N4)ccc2n1 [Example 69] | 6.73 | 7.55 |
| COc1cccc2ccc(C(=O)N3CCC4(CC3)Cc3cn(C(C)(C)C)nc3C(=O)N4)cc12 [Example 70] | 8.24 | 8.62 |
| CC(C)(C)n1cc2c(n1)C(=O)NC1(CCN(C(=O)c3ccc4ccc(N)nc4c3)CC1)C2 [Example 72] | 7.55 | 8.23 |
| CNc1cc2cc(C(=O)N3CCC4(CC3)Cc3cn(C(C)(C)C)nc3C(=O)N4)ccc2cn1 [Example 73] | 7.32 | 8.26 |

| Compound | pIC50 [1] | pIC50 [2] |
| --- | --- | --- |
| COc1cccc2ncc(C(=O)N3CCC4(CC3)Cc3cn(C(C)(C)C)nc3C(=O)N4)cc12 [Example 74] | 7.74 | 8.49 |
| CNc1nc2cc(C(=O)N3CCC4(CC3)Cc3cn(C(C)(C)C)nc3C(=O)N4)ccc2[nH]1 [Example 75] | 7.10 | 7.96 |
| CC(C)(C)n1cc2c(n1)C(=O)NC1(CCN(C(=O)c3ccc4[nH]c(N)nc4c3)CC1)C2 [Example 77] | 7.10 | 8.08 |
| CC(C)(C)n1cc2c(n1)C(=O)NC1(CCN(C(=O)c3cc(C(F)(F)F)c4[nH]ncc4c3)CC1)C2 [Example 78] | 6.81 | 7.47 |
| COc1n[nH]c2cc(C(=O)N3CCC4(CC3)Cc3cn(C(C)(C)C)nc3C(=O)N4)ccc12 [Example 79] | 6.67 | 7.74 |
| COc1n[nH]c2ccc(C(=O)N3CCC4(CC3)Cc3cn(C(C)(C)C)nc3C(=O)N4)cc12 [Example 81] | 7.34 | 8.28 |
| CC(C)(C)n1cc2c(n1)C(=O)NC1(CCN(C(=O)c3ccc4c(C(F)(F)F)n[nH]c4c3)CC1)C2 [Example 83] | 6.79 | 7.72 |
| Cn1[nH]c2cc(C(=O)N3CCC4(CC3)Cc3cn(C(C)(C)C)nc3C(=O)N4)ccc2c1=O [Example 84] | 6.71 | 7.48 |
| COc1cc(C(=O)N2CCC3(CC2)Cc2cn(C(C)(C)C)nc2C(=O)N3)cc2c(C)n[nH]c12 [Example 87] | 7.77 | 8.68 |
| CNc1n[nH]c2cc(C(=O)N3CCC4(CC3)Cc3cn(C(C)(C)C)nc3C(=O)N4)ccc12 [Example 89] | 6.46 | 7.36 |
| COc1cc2ccc(C(=O)N3CCC4(CC3)Cc3cn(C(C)(C)C)nc3C(=O)N4)cc2cn1 [Example 90] | 6.68 | 7.51 |
| CNc1nccc2cc(C(=O)N3CCC4(CC3)Cc3cn(C(C)(C)C)nc3C(=O)N4)ccc12 [Example 91] | 6.62 | 7.29 |
| COc1nccc2cc(C(=O)N3CCC4(CC3)Cc3cn(C(C)(C)C)nc3C(=O)N4)ccc12 [Example 92] | 6.61 | 7.26 |
| CNc1n[nH]c2ccc(C(=O)N3CCC4(CC3)Cc3cn(C(C)(C)C)nc3C(=O)N4)cc12 [Example 93] | 7.19 | 8.07 |
| CC(C)(C)n1cc2c(n1)C(=O)NC1(CCN(C(=O)c3ccc4cc(N)ncc4c3)CC1)C2 [Example 94] | 6.89 | 7.64 |
| CNc1cc2ccc(C(=O)N3CCC4(CC3)Cc3cn(C(C)(C)C)nc3C(=O)N4)cc2cn1 [Example 95] | 6.98 | 8.04 |
| CC(C)(C)n1cc2c(n1)C(=O)NC1(CCN(C(=O)c3cnc4[nH]cc(Cl)c4c3)CC1)C2 [Example 96] | 7.21 | 8.15 |
| COc1cc(C(=O)N2CCC3(CC2)Cc2cn(C(C)(C)C)nc2C(=O)N3)cc2cn[nH]c12 [Example 99, 2′-tert-butyl-1-(7-methoxy-1H-indazole-5-carbonyl)-4′,6′-dihydrospiro[piperidine-4,5′-pyrazolo[3,4-c]pyridin]-7′(2′H)-one] | 7.64 | 8.25 |
| CC(C)(C)n1cc2c(n1)C(=O)NC1(CCN(C(=O)c3ccc4ccnc(N)c4c3)CC1)C2 [Example 100, 1-(1-aminoisoquinoline-7-carbonyl)-2′-tert-butyl-4′,6′-dihydrospiro[piperidine-4,5′-pyrazolo[3,4-c]pyridin]-7′(2′H)-one] | 7.21 | 7.68 |
